Measurements published in the supplement of paper PMC10307832.

compound: COc1cc2nc(N3CCCN(C)CC3)nc(NC3CCN(Cc4ccccc4)CC3)c2cc1OC + NC(=O)Nc1cc(-c2cccc(F)c2)sc1C(=O)N[C@H]1CCCNC1 [AZD7762] (partner 0.2 µM); experiment: relative viability (nuclei count vs DMSO), 5 days (fraction); higher = more cells survive; details: first compound 0.2 µM
Method in brief: (§1)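 Medians of duplicate plates are given as relative viability. That measure is the nuclei count in treated wells divided by the count in vehicle wells. Counts were taken on 4× images of lung cancer cell lines in 1536-well plates, 5 days after pin-tool dosing the day after seeding with one drug alone or a fixed anchor-drug dose plus five library-drug doses (not always all listed) in √10 steps.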

Compared with HCC-366, NCI-H1666 is higher in relative viability: 0.232 for the first, 0.901 for the second.

Compared with NCI-H596, LK-2 is lower in relative viability: 1.16 for the first, 0.463 for the second.

First: NCI-H2087
Second: H3255
The relative viability of the first is higher: 1.48 for the first, 0.911 for the second.

Compared with LOU-NH91, NCI-H2170 is higher in relative viability: 0.727 for the first, 0.936 for the second.

Going from NCI-H2405 to HOP-62, the relative viability falls from 0.671 to 0.485.

Compared with LU99A, BEN is higher in relative viability: 0.383 for the first, 0.8 for the second.

Compared with HARA, HCC-78 is higher in relative viability: 0.306 for the first, 0.588 for the second.

Compared with NCI-H322M, LCLC-97TM1 is lower in relative viability: 0.48 for the first, 0.335 for the second.

Going from A-427 to NCI-H441, the relative viability rises from 0.785 to 1.09.

Going from NCI-H1734 to NCI-H460, the relative viability rises from 0.551 to 0.746.

First: NCI-H2347
Second: NCI-H1395
The relative viability of the first is higher: 0.697 for the first, 0.413 for the second.

Compared with 201T, NCI-H1915 is higher in relative viability: 0.657 for the first, 0.698 for the second.

First: HCC-827
Second: LXF-289
The relative viability of the first is lower: 0.199 for the first, 1.04 for the second.

Compared with NCI-H23, NCI-H647 is higher in relative viability: 0.198 for the first, 0.479 for the second.

Going from CAL-12T to NCI-H1651, the relative viability falls from 0.725 to 0.446.

Cell Line EPLC-272H has a relative viability of 0.209.

same assay, conditions: first compound 0.6325 µM

Going from NCI-H727 to NCI-H1993, the relative viability rises from 0.449 to 0.844.

Compared with NCI-H838, LCLC-103H is lower in relative viability: 0.908 for the first, 0.719 for the second.

Compared with NCI-H2126, EMC-BAC-2 is higher in relative viability: 1.02 for the first, 1.16 for the second.

Going from NCI-H2085 to HCC-366, the relative viability falls from 0.992 to 0.203.

First: NCI-H1666
Second: NCI-H596
The relative viability of the first is lower: 0.809 for the first, 1.03 for the second.

First: LK-2
Second: NCI-H2087
The relative viability of the first is lower: 0.487 for the first, 1.18 for the second.

Going from H3255 to LOU-NH91, the relative viability falls from 0.86 to 0.85.

Going from NCI-H2170 to NCI-H2405, the relative viability falls from 0.809 to 0.792.

Compared with HOP-62, LU99A is lower in relative viability: 0.425 for the first, 0.314 for the second.

First: BEN
Second: HARA
The relative viability of the first is higher: 0.82 for the first, 0.337 for the second.

Going from HCC-78 to NCI-H322M, the relative viability falls from 0.675 to 0.665.

First: LCLC-97TM1
Second: A-427
The relative viability of the first is lower: 0.269 for the first, 0.681 for the second.

Going from NCI-H441 to NCI-H1734, the relative viability falls from 1.12 to 0.505.

Going from NCI-H460 to NCI-H2347, the relative viability rises from 0.604 to 0.714.

First: NCI-H1395
Second: 201T
The relative viability of the first is lower: 0.446 for the first, 0.619 for the second.

Going from NCI-H1915 to HCC-827, the relative viability falls from 0.586 to 0.213.

Going from LXF-289 to NCI-H23, the relative viability falls from 1.05 to 0.322.

First: NCI-H647
Second: CAL-12T
The relative viability of the first is lower: 0.602 for the first, 0.615 for the second.

Going from NCI-H1651 to EPLC-272H, the relative viability falls from 0.373 to 0.209.

same assay, conditions: first compound 2 µM

Going from NCI-H727 to NCI-H1993, the relative viability rises from 0.578 to 0.816.

Going from NCI-H838 to LCLC-103H, the relative viability falls from 1.01 to 0.903.

Compared with NCI-H2126, EMC-BAC-2 is higher in relative viability: 1.04 for the first, 1.07 for the second.

First: NCI-H2085
Second: HCC-366
The relative viability of the first is higher: 1.09 for the first, 0.272 for the second.

Compared with NCI-H1666, NCI-H596 is higher in relative viability: 0.76 for the first, 1.23 for the second.

First: LK-2
Second: NCI-H2087
The relative viability of the first is lower: 0.506 for the first, 1.46 for the second.

Compared with H3255, LOU-NH91 is lower in relative viability: 0.972 for the first, 0.759 for the second.

First: NCI-H2170
Second: NCI-H2405
The relative viability of the first is higher: 0.892 for the first, 0.829 for the second.

Compared with HOP-62, LU99A is lower in relative viability: 0.726 for the first, 0.301 for the second.

Going from BEN to HARA, the relative viability falls from 0.752 to 0.453.

Compared with HCC-78, NCI-H322M is lower in relative viability: 0.67 for the first, 0.444 for the second.

Going from LCLC-97TM1 to A-427, the relative viability rises from 0.297 to 0.756.

First: NCI-H441
Second: NCI-H1734
The relative viability of the first is higher: 0.973 for the first, 0.502 for the second.

First: NCI-H460
Second: NCI-H2347
The relative viability of the first is lower: 0.562 for the first, 0.839 for the second.

First: NCI-H1395
Second: 201T
The relative viability of the first is lower: 0.37 for the first, 0.492 for the second.

First: NCI-H1915
Second: HCC-827
The relative viability of the first is higher: 0.72 for the first, 0.15 for the second.

Going from LXF-289 to NCI-H23, the relative viability falls from 1.12 to 0.262.

Going from NCI-H647 to CAL-12T, the relative viability rises from 0.512 to 0.614.

First: NCI-H1651
Second: EPLC-272H
The relative viability of the first is higher: 0.452 for the first, 0.184 for the second.

same assay, conditions: first compound 6.325 µM

Compared with NCI-H727, NCI-H1993 is higher in relative viability: 0.668 for the first, 0.826 for the second.

First: NCI-H838
Second: LCLC-103H
The relative viability of the first is higher: 0.892 for the first, 0.832 for the second.

Compared with NCI-H2126, EMC-BAC-2 is higher in relative viability: 0.982 for the first, 1.29 for the second.

Going from NCI-H2085 to HCC-366, the relative viability falls from 0.947 to 0.258.

Going from NCI-H1666 to NCI-H596, the relative viability rises from 0.746 to 1.06.

Going from LK-2 to NCI-H2087, the relative viability rises from 0.249 to 1.22.

Going from H3255 to LOU-NH91, the relative viability falls from 0.795 to 0.793.

Compared with NCI-H2170, NCI-H2405 is higher in relative viability: 0.833 for the first, 0.973 for the second.

First: HOP-62
Second: LU99A
The relative viability of the first is higher: 0.521 for the first, 0.285 for the second.

Going from BEN to HARA, the relative viability falls from 0.736 to 0.266.

Compared with HCC-78, NCI-H322M is lower in relative viability: 0.717 for the first, 0.549 for the second.

Compared with LCLC-97TM1, A-427 is higher in relative viability: 0.277 for the first, 0.775 for the second.

Going from NCI-H441 to NCI-H1734, the relative viability falls from 1.12 to 0.724.

Going from NCI-H460 to NCI-H2347, the relative viability rises from 0.636 to 0.76.

Compared with NCI-H1395, 201T is higher in relative viability: 0.335 for the first, 0.602 for the second.

First: NCI-H1915
Second: HCC-827
The relative viability of the first is higher: 0.764 for the first, 0.238 for the second.

First: LXF-289
Second: NCI-H23
The relative viability of the first is higher: 1.11 for the first, 0.174 for the second.

First: NCI-H647
Second: CAL-12T
The relative viability of the first is lower: 0.419 for the first, 0.595 for the second.

Compared with NCI-H1651, EPLC-272H is lower in relative viability: 0.502 for the first, 0.258 for the second.

compound: COc1cc2nc(N3CCCN(C)CC3)nc(NC3CCN(Cc4ccccc4)CC3)c2cc1OC + COc1cc2c(Oc3ccc(NC(=O)C4(C(=O)Nc5ccc(F)cc5)CC4)cc3F)ccnc2cc1OCCCN1CCOCC1 [Foretinib] (partner 0.25 µM); experiment: as above; details: first compound 0.2 µM
Method in brief: as §1

First: NCI-H727
Second: NCI-H1993
The relative viability of the first is lower: 0.771 for the first, 0.801 for the second.

First: NCI-H838
Second: LCLC-103H
The relative viability of the first is higher: 1.08 for the first, 0.826 for the second.

First: NCI-H2126
Second: EMC-BAC-2
The relative viability of the first is higher: 1.09 for the first, 0.956 for the second.

Going from NCI-H2085 to HCC-366, the relative viability falls from 0.917 to 0.916.

Compared with NCI-H1666, NCI-H596 is lower in relative viability: 0.897 for the first, 0.847 for the second.

Compared with LK-2, NCI-H2087 is lower in relative viability: 1.49 for the first, 1.12 for the second.

Compared with H3255, LOU-NH91 is higher in relative viability: 0.857 for the first, 0.933 for the second.
